From ChEMBL document CHEMBL1275467, “Spread of OXA-48-positive carbapenem-resistant Klebsiella pneumoniae isolates in Istanbul, Turkey” (2008)
Values after ≈ are worked out from the molar mass of the structure shown.

Columns and labels:
Type in all cases: functional
Klebsiella pneumoniae [1] = experiment: Antimicrobial activity against Klebsiella pneumoniae containing PFGE clone A expressing beta-lactamase Oxa-48, TEM-1, SHV-12 and Oxa-9 by Etest
Klebsiella pneumoniae [2] = experiment: Antimicrobial activity against Klebsiella pneumoniae containing PFGE clone B expressing beta-lactamase Oxa-48, TEM-1, CTX-M-15 and Oxa-1 by Etest
Escherichia coli [3] = experiment: Antimicrobial activity against Escherichia coli J53 harboring beta-lactamase Oxa-48 by Etest
Escherichia coli [4] = experiment: Antimicrobial activity against Escherichia coli J53 by Etest
Klebsiella pneumoniae [5] = experiment: Antimicrobial activity against Klebsiella pneumoniae isolate 11 expressing beta-lactamase Oxa-48, TEM-1 and Oxa-1 by Etest
Klebsiella pneumoniae [6] = experiment: Antimicrobial activity against Klebsiella pneumoniae isolate 21 expressing beta-lactamase Oxa-48, TEM-1 and Oxa-9 by Etest
Escherichia coli [7] = experiment: Antimicrobial activity against Escherichia coli J53 harboring beta-lactamase TEM-1, CTX-M-15 and Oxa-1 by Etest
Escherichia coli [8] = experiment: Antimicrobial activity against Escherichia coli J53 harboring beta-lactamase TEM-1, SHV-12 and Oxa-9 by Etest
Klebsiella pneumoniae [9] = experiment: Antimicrobial activity against Klebsiella pneumoniae containing PFGE clone A expressing beta-lactamase Oxa-48, TEM-1, SHV-12 and Oxa-9 by Etest in presence of beta-lactamase inhibitor clavulanic acid
Klebsiella pneumoniae [10] = experiment: Antimicrobial activity against Klebsiella pneumoniae containing PFGE clone B expressing beta-lactamase Oxa-48, TEM-1, CTX-M-15 and Oxa-1 by Etest in presence of beta-lactamase inhibitor clavulanic acid
Escherichia coli [11] = experiment: Antimicrobial activity against Escherichia coli J53 harboring beta-lactamase TEM-1, CTX-M-15 and Oxa-1 by Etest in presence of beta-lactamase inhibitor clavulanic acid
Escherichia coli [12] = experiment: Antimicrobial activity against Escherichia coli J53 harboring beta-lactamase Oxa-48 by Etest in presence of beta-lactamase inhibitor clavulanic acid
Escherichia coli [13] = experiment: Antimicrobial activity against Escherichia coli J53 harboring beta-lactamase TEM-1, SHV-12 and Oxa-9 by Etest in presence of beta-lactamase inhibitor clavulanic acid
Escherichia coli [14] = experiment: Antimicrobial activity against Escherichia coli J53 by Etest in presence of beta-lactamase inhibitor clavulanic acid
Klebsiella pneumoniae [15] = experiment: Antimicrobial activity against Klebsiella pneumoniae isolate 11 expressing beta-lactamase Oxa-48, TEM-1 and Oxa-1 by Etest in presence of beta-lactamase inhibitor clavulanic acid
Klebsiella pneumoniae [16] = experiment: Antimicrobial activity against Klebsiella pneumoniae isolate 21 expressing beta-lactamase Oxa-48, TEM-1 and Oxa-9 by Etest in presence of beta-lactamase inhibitor clavulanic acid
Klebsiella pneumoniae [17] = experiment: Antimicrobial activity against Klebsiella pneumoniae containing PFGE clone A expressing beta-lactamase Oxa-48, TEM-1, SHV-12 and Oxa-9 by Etest in presence of beta-lactamase inhibitor Tazobactam
Klebsiella pneumoniae [18] = experiment: Antimicrobial activity against Klebsiella pneumoniae containing PFGE clone B expressing beta-lactamase Oxa-48, TEM-1, CTX-M-15 and Oxa-1 by Etest in presence of beta-lactamase inhibitor Tazobactam
Escherichia coli [19] = experiment: Antimicrobial activity against Escherichia coli J53 harboring beta-lactamase TEM-1, CTX-M-15 and Oxa-1 by Etest in presence of beta-lactamase inhibitor Tazobactam
Escherichia coli [20] = experiment: Antimicrobial activity against Escherichia coli J53 harboring beta-lactamase Oxa-48 by Etest in presence of beta-lactamase inhibitor Tazobactam
Escherichia coli [21] = experiment: Antimicrobial activity against Escherichia coli J53 harboring beta-lactamase TEM-1, SHV-12 and Oxa-9 by Etest in presence of beta-lactamase inhibitor Tazobactam
Escherichia coli [22] = experiment: Antimicrobial activity against Escherichia coli J53 by Etest in presence of beta-lactamase inhibitor Tazobactam
Klebsiella pneumoniae [23] = experiment: Antimicrobial activity against Klebsiella pneumoniae isolate 11 expressing beta-lactamase Oxa-48, TEM-1 and Oxa-1 by Etest in presence of beta-lactamase inhibitor Tazobactam
Klebsiella pneumoniae [24] = experiment: Antimicrobial activity against Klebsiella pneumoniae isolate 21 expressing beta-lactamase Oxa-48, TEM-1 and Oxa-9 by Etest in presence of beta-lactamase inhibitor Tazobactam

Row | Compound | MIC (Klebsiella pneumoniae [1]) [µg/mL] | MIC (Klebsiella pneumoniae [2]) [µg/mL] | MIC (Escherichia coli [3]) [µg/mL] | MIC (Escherichia coli [4]) [µg/mL] | MIC (Klebsiella pneumoniae [5]) [µg/mL] | MIC (Klebsiella pneumoniae [6]) [µg/mL] | MIC (Escherichia coli [7]) [µg/mL] | MIC (Escherichia coli [8]) [µg/mL] | other results
1 | C[C@@H](O)[C@H]1C(=O)N2C(C(=O)O)=C(S[C@@H]3CN[C@H](C(=O)Nc4cccc(C(=O)O)c4)C3)[C@H](C)[C@H]12 | > 32 | > 32 | 0.25 (≈ 0.526 µM) | < 1 | > 32 | > 32 | – | – | –
2 | CO/N=C(\C(=O)N[C@@H]1C(=O)N2C(C(=O)[O-])=C(C[N+]3(C)CCCC3)CS[C@H]12)c1csc(N)n1 | – | – | < 0.5 | 0.125 (≈ 0.26 µM) | 4 (≈ 8.32 µM) | 4 (≈ 8.32 µM) | 4 (≈ 8.32 µM) | 0.5 (≈ 1.04 µM) | –
3 | NCC[C@H](O)C(=O)N[C@@H]1C[C@H](N)[C@@H](O[C@H]2O[C@H](CN)[C@@H](O)[C@H](O)[C@H]2O)[C@H](O)[C@H]1O[C@H]1O[C@H](CO)[C@@H](O)[C@H](N)[C@H]1O [AMIKACIN] | 16 (≈ 27.3 µM) | 2 (≈ 3.42 µM) | – | – | – | – | – | – | –
4 | CC1(C)S[C@@H]2[C@H](NC(=O)[C@H](N)c3ccc(O)cc3)C(=O)N2[C@H]1C(=O)O [AMOXICILLIN] | > 512 | > 512 | > 512 | 1 (≈ 2.74 µM) | > 512 | > 512 | > 512 | > 512 | MIC (Klebsiella pneumoniae [9]): > 512 µg/mL; MIC (Klebsiella pneumoniae [10]): > 512 µg/mL; MIC (Escherichia coli [11]): > 513 µg/mL; MIC (Escherichia coli [12]): > 512 µg/mL; MIC (Escherichia coli [13]): > 512 µg/mL; MIC (Escherichia coli [14]): 1 µg/mL; MIC (Klebsiella pneumoniae [15]): > 512 µg/mL; MIC (Klebsiella pneumoniae [16]): > 512 µg/mL
5 | C[C@H]1[C@H](NC(=O)/C(=N\OC(C)(C)C(=O)O)c2csc(N)n2)C(=O)N1S(=O)(=O)O [AZTREONAM] | – | – | < 0.125 | 0.5 (≈ 1.15 µM) | 0.5 (≈ 1.15 µM) | 0.5 (≈ 1.15 µM) | 8 (≈ 18.4 µM) | 64 (≈ 147 µM) | –
6 | CO/N=C(\C(=O)N[C@@H]1C(=O)N2C(C(=O)O)=C(COC(C)=O)CS[C@H]12)c1csc(N)n1 [CEFOTAXIME] | > 512 | > 512 | 0.5 (≈ 1.1 µM) | 0.5 (≈ 1.1 µM) | 4 (≈ 8.78 µM) | 4 (≈ 8.78 µM) | > 32 | 4 (≈ 8.78 µM) | –
7 | CO[C@@]1(NC(=O)Cc2cccs2)C(=O)N2C(C(=O)O)=C(COC(N)=O)CS[C@@H]21 [CEFOXITIN] | 16 (≈ 37.4 µM) | > 32 | 4 (≈ 9.36 µM) | 4 (≈ 9.36 µM) | 16 (≈ 37.4 µM) | > 32 | 2 (≈ 4.68 µM) | 2 (≈ 4.68 µM) | –
8 | CC(C)(O/N=C(\C(=O)N[C@@H]1C(=O)N2C(C(=O)[O-])=C(C[n+]3ccccc3)CS[C@H]12)c1csc(N)n1)C(=O)O [CEFTAZIDIME] | > 512 | > 512 | 1 (≈ 1.83 µM) | 1 (≈ 1.83 µM) | 2 (≈ 3.66 µM) | 2 (≈ 3.66 µM) | 128 (≈ 234 µM) | 64 (≈ 117 µM) | –
9 | C[C@@H](O)[C@H]1C(=O)N2C(C(=O)O)=C(SCCNC=N)C[C@H]12 [IMIPENEM ANHYDROUS] | 4 (≈ 13.4 µM) | 4 (≈ 13.4 µM) | 0.5 (≈ 1.67 µM) | – | 8 (≈ 26.7 µM) | 8 (≈ 26.7 µM) | < 1 | < 1 | –
10 | NC[C@H]1O[C@H](O[C@H]2[C@H](O)[C@@H](O[C@H]3O[C@H](CO)[C@@H](O)[C@H](N)[C@H]3O)[C@H](N)C[C@@H]2N)[C@H](O)[C@@H](O)[C@@H]1O [KANAMYCIN] | > 256 | 128 (≈ 264 µM) | – | – | – | – | – | – | –
11 | C[C@@H](O)[C@H]1C(=O)N2C(C(=O)O)=C(S[C@@H]3CN[C@H](C(=O)N(C)C)C3)[C@H](C)[C@H]12 [MEROPENEM] | > 32 | 6 (≈ 15.6 µM) | 0.12 (≈ 0.313 µM) | < 1 | – | – | – | – | –
12 | CO[C@@]1(NC(=O)C(C(=O)O)c2ccc(O)cc2)C(=O)N2C(C(=O)O)=C(CSc3nnnn3C)CO[C@@H]21 (some centres not stated) [MOXALACTAM] | > 16 | > 16 | 2 (≈ 3.84 µM) | 1 (≈ 1.92 µM) | – | – | < 0.5 | < 0.5 | –
13 | CCn1cc(C(=O)O)c(=O)c2ccc(C)nc21 [NALIDIXIC ACID] | > 64 | > 64 | – | – | – | – | – | – | –
14 | CCN[C@@H]1C[C@H](N)[C@@H](O[C@H]2OC(CN)=CC[C@H]2N)[C@H](O)[C@H]1O[C@H]1OC[C@](C)(O)[C@H](NC)[C@H]1O [NETILMICIN] | > 128 | 3 (≈ 6.31 µM) | – | – | – | – | – | – | –
15 | CCn1cc(C(=O)O)c(=O)c2cc(F)c(N3CCNCC3)cc21 [NORFLOXACIN] | 8 (≈ 25.1 µM) | > 256 | – | – | – | – | – | – | –
16 | CC1COc2c(N3CCN(C)CC3)c(F)cc3c(=O)c(C(=O)O)cn1c23 (configuration not stated) [OFLOXACIN] | 2 (≈ 5.53 µM) | > 64 | – | – | – | – | – | – | –
17 | CCN1CCN(C(=O)N[C@@H](C(=O)N[C@@H]2C(=O)N3[C@@H]2SC(C)(C)[C@@H]3C(=O)O)c2ccccc2)C(=O)C1=O [PIPERACILLIN] | > 512 | > 512 | > 512 | 4 (≈ 7.73 µM) | > 512 | > 512 | > 512 | > 512 | MIC (Klebsiella pneumoniae [17]): > 512 µg/mL; MIC (Klebsiella pneumoniae [18]): > 512 µg/mL; MIC (Escherichia coli [19]): > 4 µg/mL; MIC (Escherichia coli [20]): 64 µg/mL; MIC (Escherichia coli [21]): > 4 µg/mL; MIC (Escherichia coli [22]): 4 µg/mL; MIC (Klebsiella pneumoniae [23]): > 512 µg/mL; MIC (Klebsiella pneumoniae [24]): > 512 µg/mL
18 | CN(C)[C@@H]1C(O)=C(C(N)=O)C(=O)[C@@]2(O)C(O)=C3C(=O)c4c(O)cccc4[C@@](C)(O)[C@H]3C[C@@H]12 [TETRACYCLINE] | > 256 | > 256 | – | – | – | – | – | – | –
19 | CC1(C)S[C@@H]2[C@H](NC(=O)[C@H](C(=O)O)c3ccsc3)C(=O)N2[C@H]1C(=O)O [TICARCILLIN] | > 512 | > 512 | > 512 | 4 (≈ 10.4 µM) | > 512 | > 512 | > 514 | > 512 | MIC (Klebsiella pneumoniae [9]): > 512 µg/mL; MIC (Klebsiella pneumoniae [10]): > 512 µg/mL; MIC (Escherichia coli [11]): > 512 µg/mL; MIC (Escherichia coli [12]): > 512 µg/mL; MIC (Escherichia coli [13]): > 512 µg/mL; MIC (Escherichia coli [14]): 4 µg/mL; MIC (Klebsiella pneumoniae [15]): > 512 µg/mL; MIC (Klebsiella pneumoniae [16]): > 512 µg/mL
20 | NC[C@H]1O[C@H](O[C@H]2[C@H](O)[C@@H](O[C@H]3O[C@H](CO)[C@@H](O)[C@H](N)[C@H]3O)[C@H](N)C[C@@H]2N)[C@H](N)C[C@@H]1O [TOBRAMYCIN] | > 64 | > 64 | – | – | – | – | – | – | –
21 | COc1cc(Cc2cnc(N)nc2N)cc(OC)c1OC [TRIMETHOPRIM] | > 32 | > 32 | – | – | – | – | – | – | –
22 | GENTAMICIN | > 64 | 1 | – | – | – | – | – | – | –
